ChEMBL document CHEMBL3886358, “Quinolyl-containing hydroxamic acid compound and preparation method thereof, and pharmaceutical composition containing this compound and use thereof” (2015)
pIC50: −log10 of the molar value.

How the values were obtained:
Histone deacetylase 5 = Histone deacetylase 5 (Homo sapiens, UniProt Q9UQL6); assay: (§1) Inhibition Assay: The inhibitions of activities of HDAC enzymes by the compounds N1'-[3-fluoro-4-[[7-[4-(hydroxyamino)-4-oxobutoxy]-6-methoxy-4-quinolyl]oxy]phenyl]-N1-(4-fluoro phenyl)cyclopropane-1,1-dicarboxamide prepared in Example 9 and N1'-[3-fluoro-4-[[7-[6-(hydroxyamino)-6-oxohexyloxy]-6-methoxy-4-quinolyl]oxy]phenyl]-N1-(4-fluo rophenyl)cyclopropane-1,1-dicarboxamide prepared in Example 13 were measured by Reaction Biology Corporation (Reaction Biology Corp., One Great Valley Parkway, Suite 2, Malvern, PA 19355, USA . http://www.reactionbiology.com/pages/hdac.htm). The HDAC enzymes tested include the following 11 HDAC isoforms: HDAC1, HDAC2, HDAC3, HDAC4, HDAC5, HDAC6, HDAC7, HDAC8, HDAC9, HDAC10 and HDAC11.Specific steps were as follows: The compound of the present invention was dissolved in dimethyl sulfoxide (DMSO) to make a stock solution of 10 mM. The stock solution was diluted in 4-fold series starting from 10 mM to prepare 10 different dosages.
Histone deacetylase 5, sequence (Q9UQL6 whole entry, canonical isoform): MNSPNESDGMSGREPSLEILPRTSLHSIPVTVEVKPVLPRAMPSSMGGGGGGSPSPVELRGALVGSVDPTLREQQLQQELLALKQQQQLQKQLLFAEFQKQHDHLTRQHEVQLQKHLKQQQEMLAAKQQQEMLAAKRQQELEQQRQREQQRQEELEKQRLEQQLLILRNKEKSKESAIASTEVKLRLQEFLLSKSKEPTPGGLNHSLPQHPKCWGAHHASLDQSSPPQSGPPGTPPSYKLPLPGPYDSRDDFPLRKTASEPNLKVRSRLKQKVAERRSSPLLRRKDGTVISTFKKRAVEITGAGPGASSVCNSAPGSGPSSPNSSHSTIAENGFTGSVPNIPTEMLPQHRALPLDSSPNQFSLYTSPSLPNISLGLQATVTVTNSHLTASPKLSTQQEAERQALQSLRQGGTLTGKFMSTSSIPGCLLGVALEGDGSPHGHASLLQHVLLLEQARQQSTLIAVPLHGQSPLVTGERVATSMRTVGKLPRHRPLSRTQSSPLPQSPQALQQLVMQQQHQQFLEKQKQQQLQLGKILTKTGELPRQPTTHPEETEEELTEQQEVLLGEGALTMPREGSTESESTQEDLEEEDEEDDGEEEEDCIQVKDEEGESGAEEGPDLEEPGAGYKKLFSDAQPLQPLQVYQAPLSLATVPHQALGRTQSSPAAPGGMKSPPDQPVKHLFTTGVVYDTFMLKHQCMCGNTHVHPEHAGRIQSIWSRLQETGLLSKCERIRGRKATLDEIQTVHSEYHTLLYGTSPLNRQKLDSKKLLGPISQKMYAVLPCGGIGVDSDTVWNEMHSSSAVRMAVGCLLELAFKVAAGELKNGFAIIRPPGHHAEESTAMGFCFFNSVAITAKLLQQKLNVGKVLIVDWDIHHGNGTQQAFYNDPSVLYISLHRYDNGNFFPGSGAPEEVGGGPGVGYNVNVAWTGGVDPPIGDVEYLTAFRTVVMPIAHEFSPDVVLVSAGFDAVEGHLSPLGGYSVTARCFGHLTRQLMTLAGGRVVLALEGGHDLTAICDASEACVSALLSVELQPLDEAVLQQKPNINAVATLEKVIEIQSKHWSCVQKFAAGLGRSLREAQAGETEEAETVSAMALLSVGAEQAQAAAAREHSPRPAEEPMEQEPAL

[1] = molecular target: T1, Protein deacetylase HDAC6 (Homo sapiens, UniProt Q9UBN7); assay: as §1
T1 sequence (Q9UBN7 whole entry): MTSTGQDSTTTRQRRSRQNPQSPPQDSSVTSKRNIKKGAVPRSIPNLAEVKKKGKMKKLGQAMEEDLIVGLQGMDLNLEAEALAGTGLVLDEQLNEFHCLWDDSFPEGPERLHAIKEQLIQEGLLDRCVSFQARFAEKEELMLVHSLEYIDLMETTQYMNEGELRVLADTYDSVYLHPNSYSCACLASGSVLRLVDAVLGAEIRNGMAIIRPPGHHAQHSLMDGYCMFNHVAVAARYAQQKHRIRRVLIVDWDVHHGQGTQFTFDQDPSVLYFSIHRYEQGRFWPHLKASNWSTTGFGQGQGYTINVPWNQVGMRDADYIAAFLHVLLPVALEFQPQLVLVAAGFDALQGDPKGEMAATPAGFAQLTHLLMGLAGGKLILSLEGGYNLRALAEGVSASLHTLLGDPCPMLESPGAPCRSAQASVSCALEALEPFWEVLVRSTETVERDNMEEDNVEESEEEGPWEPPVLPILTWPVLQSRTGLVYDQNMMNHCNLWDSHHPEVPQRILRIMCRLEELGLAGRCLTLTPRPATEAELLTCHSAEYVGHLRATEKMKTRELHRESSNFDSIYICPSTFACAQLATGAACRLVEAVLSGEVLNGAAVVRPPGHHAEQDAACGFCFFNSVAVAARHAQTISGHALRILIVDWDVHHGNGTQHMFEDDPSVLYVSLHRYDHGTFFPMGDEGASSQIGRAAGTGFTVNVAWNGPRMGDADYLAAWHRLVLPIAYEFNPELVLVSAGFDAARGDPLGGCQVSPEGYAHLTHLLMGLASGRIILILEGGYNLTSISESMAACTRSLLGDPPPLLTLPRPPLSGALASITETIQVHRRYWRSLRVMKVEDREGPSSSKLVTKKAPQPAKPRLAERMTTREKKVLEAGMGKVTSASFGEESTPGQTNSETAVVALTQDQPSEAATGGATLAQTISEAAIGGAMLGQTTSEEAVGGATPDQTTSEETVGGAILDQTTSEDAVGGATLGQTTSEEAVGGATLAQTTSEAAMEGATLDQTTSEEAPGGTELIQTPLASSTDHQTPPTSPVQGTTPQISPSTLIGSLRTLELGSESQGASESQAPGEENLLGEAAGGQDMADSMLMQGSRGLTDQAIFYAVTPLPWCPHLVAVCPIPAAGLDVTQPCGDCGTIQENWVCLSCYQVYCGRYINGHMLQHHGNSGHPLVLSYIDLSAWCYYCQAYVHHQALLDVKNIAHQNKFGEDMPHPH

Histone deacetylase 2 = Histone deacetylase 2 (Homo sapiens, UniProt Q92769); assay: as §1
Histone deacetylase 2, sequence (Q92769 whole entry): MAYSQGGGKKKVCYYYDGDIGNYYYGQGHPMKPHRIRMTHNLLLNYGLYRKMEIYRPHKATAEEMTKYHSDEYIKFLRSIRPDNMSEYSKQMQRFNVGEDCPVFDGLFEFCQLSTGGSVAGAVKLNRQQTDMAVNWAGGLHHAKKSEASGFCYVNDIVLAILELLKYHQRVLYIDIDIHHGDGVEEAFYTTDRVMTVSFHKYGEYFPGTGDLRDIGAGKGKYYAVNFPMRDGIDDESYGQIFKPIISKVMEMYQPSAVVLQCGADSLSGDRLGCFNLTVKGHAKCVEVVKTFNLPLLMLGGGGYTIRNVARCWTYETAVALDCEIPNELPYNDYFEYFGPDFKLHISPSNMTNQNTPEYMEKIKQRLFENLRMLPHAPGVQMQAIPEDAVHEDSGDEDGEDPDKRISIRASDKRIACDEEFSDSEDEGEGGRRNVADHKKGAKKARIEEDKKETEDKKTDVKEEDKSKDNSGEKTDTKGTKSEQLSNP

Histone deacetylase 1 = Histone deacetylase 1 (Homo sapiens, UniProt Q13547); assay: as §1
Histone deacetylase 1, sequence (Q13547 whole entry): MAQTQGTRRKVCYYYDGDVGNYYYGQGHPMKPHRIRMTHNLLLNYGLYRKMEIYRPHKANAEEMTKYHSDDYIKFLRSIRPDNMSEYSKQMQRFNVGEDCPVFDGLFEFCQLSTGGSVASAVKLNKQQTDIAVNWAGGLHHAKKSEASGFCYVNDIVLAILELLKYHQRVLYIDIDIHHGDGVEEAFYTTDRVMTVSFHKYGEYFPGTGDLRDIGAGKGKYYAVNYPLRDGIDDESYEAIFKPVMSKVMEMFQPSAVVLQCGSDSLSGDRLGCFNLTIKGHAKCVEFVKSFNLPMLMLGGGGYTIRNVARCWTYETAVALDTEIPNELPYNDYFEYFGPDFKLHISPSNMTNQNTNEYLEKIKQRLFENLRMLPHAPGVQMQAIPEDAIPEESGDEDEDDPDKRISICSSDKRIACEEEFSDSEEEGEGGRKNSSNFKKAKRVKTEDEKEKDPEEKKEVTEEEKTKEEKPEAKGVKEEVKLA

Histone deacetylase 4 = Histone deacetylase 4 (Homo sapiens, UniProt P56524); assay: as §1
Histone deacetylase 4, sequence (P56524 whole entry): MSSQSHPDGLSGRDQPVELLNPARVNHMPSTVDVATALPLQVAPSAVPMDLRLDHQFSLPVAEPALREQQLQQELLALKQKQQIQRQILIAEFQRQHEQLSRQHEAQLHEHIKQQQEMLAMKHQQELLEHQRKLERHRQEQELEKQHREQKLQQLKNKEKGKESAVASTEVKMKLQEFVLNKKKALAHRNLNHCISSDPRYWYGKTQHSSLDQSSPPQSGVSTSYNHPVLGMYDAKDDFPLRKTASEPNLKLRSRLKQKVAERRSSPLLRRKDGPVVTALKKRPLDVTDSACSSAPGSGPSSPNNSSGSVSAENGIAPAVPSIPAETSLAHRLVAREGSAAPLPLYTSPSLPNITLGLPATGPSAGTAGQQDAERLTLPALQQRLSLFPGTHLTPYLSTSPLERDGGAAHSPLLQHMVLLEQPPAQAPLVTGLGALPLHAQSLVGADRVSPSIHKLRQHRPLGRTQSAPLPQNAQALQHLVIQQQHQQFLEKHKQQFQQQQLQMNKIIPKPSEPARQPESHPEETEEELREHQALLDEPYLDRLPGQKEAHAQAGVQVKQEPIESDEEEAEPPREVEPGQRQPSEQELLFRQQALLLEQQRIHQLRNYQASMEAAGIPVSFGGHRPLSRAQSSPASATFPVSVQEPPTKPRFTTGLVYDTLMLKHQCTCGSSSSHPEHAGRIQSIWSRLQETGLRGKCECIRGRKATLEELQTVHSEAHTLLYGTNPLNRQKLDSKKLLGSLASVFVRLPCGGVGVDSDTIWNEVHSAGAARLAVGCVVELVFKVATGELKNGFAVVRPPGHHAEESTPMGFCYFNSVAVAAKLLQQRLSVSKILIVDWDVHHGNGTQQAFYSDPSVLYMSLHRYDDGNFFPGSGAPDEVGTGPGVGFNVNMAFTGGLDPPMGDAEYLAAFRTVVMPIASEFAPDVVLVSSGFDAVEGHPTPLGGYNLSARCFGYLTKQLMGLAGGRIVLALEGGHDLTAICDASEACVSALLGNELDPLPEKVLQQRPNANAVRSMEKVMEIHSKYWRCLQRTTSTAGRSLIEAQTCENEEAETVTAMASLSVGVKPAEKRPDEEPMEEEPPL

[2] = molecular target: T2, Polyamine deacetylase HDAC10 (Homo sapiens, UniProt Q969S8); assay: as §1
T2 sequence (Q969S8 whole entry): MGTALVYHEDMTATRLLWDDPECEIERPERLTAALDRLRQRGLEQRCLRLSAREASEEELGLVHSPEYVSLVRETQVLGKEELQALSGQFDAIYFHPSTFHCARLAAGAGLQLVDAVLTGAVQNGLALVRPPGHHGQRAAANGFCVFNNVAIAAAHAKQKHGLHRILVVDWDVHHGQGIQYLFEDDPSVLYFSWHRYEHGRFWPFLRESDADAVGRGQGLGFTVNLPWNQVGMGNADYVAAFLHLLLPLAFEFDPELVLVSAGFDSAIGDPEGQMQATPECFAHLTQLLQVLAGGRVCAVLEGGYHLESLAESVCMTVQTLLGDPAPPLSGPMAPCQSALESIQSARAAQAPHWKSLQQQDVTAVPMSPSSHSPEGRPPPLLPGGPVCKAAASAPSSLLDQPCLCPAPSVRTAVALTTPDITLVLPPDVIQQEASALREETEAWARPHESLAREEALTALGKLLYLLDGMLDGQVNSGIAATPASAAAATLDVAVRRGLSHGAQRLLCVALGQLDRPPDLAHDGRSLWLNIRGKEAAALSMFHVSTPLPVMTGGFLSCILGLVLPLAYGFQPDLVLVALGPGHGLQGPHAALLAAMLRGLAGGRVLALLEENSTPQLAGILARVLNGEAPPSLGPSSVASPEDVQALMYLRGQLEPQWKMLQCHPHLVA

Histone deacetylase 11 = molecular target: T3, Histone deacetylase 11 (Homo sapiens, UniProt Q96DB2); assay: as §1
T3 sequence (Q96DB2 whole entry): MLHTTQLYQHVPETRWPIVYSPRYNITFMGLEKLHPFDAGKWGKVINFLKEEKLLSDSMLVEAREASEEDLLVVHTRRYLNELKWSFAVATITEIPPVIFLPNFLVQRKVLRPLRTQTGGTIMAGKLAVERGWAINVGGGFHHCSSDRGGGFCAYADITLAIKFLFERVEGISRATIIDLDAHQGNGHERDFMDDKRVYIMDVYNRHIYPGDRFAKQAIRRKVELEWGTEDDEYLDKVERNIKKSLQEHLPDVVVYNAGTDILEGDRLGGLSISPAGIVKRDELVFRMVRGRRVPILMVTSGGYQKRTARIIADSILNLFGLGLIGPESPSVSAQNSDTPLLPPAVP

Histone deacetylase 3 = Histone deacetylase 3 (Homo sapiens, UniProt O15379); assay: as §1
Histone deacetylase 3, sequence (O15379 whole entry): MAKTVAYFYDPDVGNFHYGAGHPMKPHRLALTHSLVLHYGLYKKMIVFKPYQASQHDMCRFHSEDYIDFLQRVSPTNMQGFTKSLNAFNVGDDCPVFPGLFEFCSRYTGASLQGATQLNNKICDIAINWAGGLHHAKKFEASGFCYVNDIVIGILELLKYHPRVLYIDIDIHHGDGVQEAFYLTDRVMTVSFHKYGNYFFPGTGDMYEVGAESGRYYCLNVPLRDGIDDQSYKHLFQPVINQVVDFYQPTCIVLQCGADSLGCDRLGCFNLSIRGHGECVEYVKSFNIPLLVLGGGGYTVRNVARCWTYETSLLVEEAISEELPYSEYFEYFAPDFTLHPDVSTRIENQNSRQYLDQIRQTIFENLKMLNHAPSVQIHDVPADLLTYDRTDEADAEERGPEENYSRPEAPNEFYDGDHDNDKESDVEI

Histone deacetylase 9 = Histone deacetylase 9 (Homo sapiens, UniProt Q9UKV0); assay: as §1
Histone deacetylase 9, sequence (Q9UKV0 whole entry): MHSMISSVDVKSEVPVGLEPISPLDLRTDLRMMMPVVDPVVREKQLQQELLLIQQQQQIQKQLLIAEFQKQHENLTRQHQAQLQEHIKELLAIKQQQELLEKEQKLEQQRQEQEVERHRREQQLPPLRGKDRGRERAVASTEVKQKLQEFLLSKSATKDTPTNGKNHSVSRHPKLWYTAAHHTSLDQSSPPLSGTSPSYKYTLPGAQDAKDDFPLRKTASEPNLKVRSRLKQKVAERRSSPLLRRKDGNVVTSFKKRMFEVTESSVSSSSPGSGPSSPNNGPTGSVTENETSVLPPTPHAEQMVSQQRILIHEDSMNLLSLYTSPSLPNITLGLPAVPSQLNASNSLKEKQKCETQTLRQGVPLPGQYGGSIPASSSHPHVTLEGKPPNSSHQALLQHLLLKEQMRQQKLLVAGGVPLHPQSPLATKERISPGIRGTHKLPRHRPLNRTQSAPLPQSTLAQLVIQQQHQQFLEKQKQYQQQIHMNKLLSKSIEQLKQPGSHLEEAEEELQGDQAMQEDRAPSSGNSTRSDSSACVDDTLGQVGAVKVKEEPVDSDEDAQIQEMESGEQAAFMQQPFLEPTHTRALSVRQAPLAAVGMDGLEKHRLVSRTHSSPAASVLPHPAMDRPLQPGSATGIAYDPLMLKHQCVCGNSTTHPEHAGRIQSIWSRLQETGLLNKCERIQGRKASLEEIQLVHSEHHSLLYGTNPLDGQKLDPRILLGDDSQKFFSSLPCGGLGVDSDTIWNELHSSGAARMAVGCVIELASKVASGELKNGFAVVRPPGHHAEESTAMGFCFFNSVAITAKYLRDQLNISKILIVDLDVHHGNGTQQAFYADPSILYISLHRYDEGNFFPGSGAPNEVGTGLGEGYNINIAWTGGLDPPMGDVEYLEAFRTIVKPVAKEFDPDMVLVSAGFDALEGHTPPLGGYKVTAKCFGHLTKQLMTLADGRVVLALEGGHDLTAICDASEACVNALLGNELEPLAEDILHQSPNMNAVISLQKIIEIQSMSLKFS

Row | Structure (SMILES) | pIC50 (Histone deacetylase 5) | pIC50 [1] | pIC50 (Histone deacetylase 2) | pIC50 (Histone deacetylase 1) | pIC50 (Histone deacetylase 4) | pIC50 [2] | pIC50 (Histone deacetylase 11) | pIC50 (Histone deacetylase 3) | pIC50 (Histone deacetylase 9)
1 | COc1cc2c(Oc3ccc(NC(=O)C4(C(=O)Nc5ccc(F)cc5)CC4)cc3F)ccnc2cc1OCCCCCC(=O)NO | < 5.00 | 8.08 | 5.56 | < 5.00 | < 5.00 | 4.92 | 5.21 | < 5.00 | < 5.00
2 | COc1cc2c(Oc3ccc(NC(=O)C4(C(=O)Nc5ccc(F)cc5)CC4)cc3F)ccnc2cc1OCCCC(=O)NO | < 5.00 | 6.62 | 6.37 | < 5.00 | < 5.00 | < 5.00 | < 5.00 | < 5.00 | < 5.00
